Where “and” joins values, the source holds several entries; their conditions need not be identical. Identical values can stand only once.
Assays:
Shigella sp. 2D89 = experiment: MIC, resistance reversal by various concentrations of compound 3, Shigella sp. 2D89; conditions: colistin sulfate with 0 ppm compound 3, or compound 3 (hydrochloride) in the absence of colistin sulfate
Procedure: (§1) The compound 3 in this embodiment was in the form of a hydrochloride, i.e., the experiments were carried out with a hydrochloride of compound 3.
(§2) In vitro minimum inhibitory concentrations of colistin sulfate against the strains where the cultures respectively comprised various concentrations of compound 3 were also measured.

E. coli 2S-19 = experiment: MIC by doubling dilution, colistin sulfate-susceptible E. coli 2S-19; format: cell-based, Escherichia coli; conditions: E. coli 2S-19, colistin sulfate-susceptible; substance alone; derivatives as hydrochlorides
E. coli 3H-4 = experiment: MIC by doubling dilution, colistin sulfate-resistant E. coli 3H-4; conditions: E. coli 3H-4, colistin sulfate-resistant; substance alone; derivatives as hydrochlorides
Procedure: (§3) In vitro minimum inhibitory concentrations of colistin sulfate against the strains where the cultures respectively comprised 20.0 ppm of the substituted benzylideneguanidine derivatives were also measured.

weanling piglets [1] = experiment: Synergy of compound 3 and colistin sulfate in the feed for weanling piglets; format: in vivo, Duroc×Landrace×Large crossbred lean weanling piglets; conditions: weanling piglets, only 20 ppm colistin sulfate in creep feed (Control 1, groups 4-6), ten days
Procedure: 120 28-day-aged Duroc×Landrace×Large crossbred lean weanling piglets similar in weight were divided into 12 groups, 10 piglets in each group. For each group, colistin sulfate and/or compound 3 were added into the antibiotic-free creep feed. The piglets were given ad libitum access to feed and water during the experiment. Weight gain, feed efficiency and diarrhea rate of each group within ten days were recorded.

E. coli 5F-1 [2] = experiment: MIC by doubling dilution, colistin sulfate-resistant E. coli 5F-1; conditions: E. coli 5F-1, colistin sulfate-resistant; substance alone; derivatives as hydrochlorides
Procedure: as §3

Klebsiella sp. 4125 = experiment: MIC, resistance reversal by various concentrations of compound 3, Klebsiella sp. 4125; conditions: colistin sulfate with 0 ppm compound 3, or compound 3 (hydrochloride) in the absence of colistin sulfate
Procedure: as §1, §2

[3] = tested on: colistin sulfate-susceptible Escherichia coli strains; experiment: MIC by doubling dilution, summary over colistin sulfate-susceptible strains; format: cell-based; conditions: bound that characterises the tested susceptible E. coli strains
weanling piglets [4] = experiment: Synergy of derivatives and colistin sulfate in the feed for weanling piglets; format: in vivo, Duroc×Landrace×Large crossbred lean weanling piglets; conditions: creep feed with only 20 ppm colistin sulfate (control group), ten days
Procedure: 90 28-day-aged Duroc×Landrace×Large crossbred lean weanling piglets similar in weight were divided into 9 groups, 10 piglets in each group. For each group, colistin sulfate and/or various substituted benzylideneguanidine derivatives were added into the antibiotic-free creep feed. The piglets were given ad libitum access to feed and water during the experiment. Weight gain, feed efficiency and diarrhea rate of each group within ten days were recorded.

E. coli 5W-7 = experiment: MIC by doubling dilution, colistin sulfate-susceptible E. coli 5W-7; format: cell-based, Escherichia coli; conditions: E. coli 5W-7, colistin sulfate-susceptible; substance alone; derivatives as hydrochlorides
[5] = tested on: colistin sulfate-resistant E. coli strains; experiment: MIC by doubling dilution, summary over colistin sulfate-resistant strains; conditions: bound that characterises the tested resistant E. coli strains
Procedure: as §3

E. coli 5F-1 [6] = experiment: MIC, resistance reversal by various concentrations of compound 3, E. coli 5F-1; conditions: colistin sulfate with 0 ppm compound 3, or compound 3 (hydrochloride) in the absence of colistin sulfate
Procedure: as §1, §2

[7] = tested on: fast-growing yellow feather broilers; experiment: Combined application of compound 3 and colistin sulfate in chicken feed; format: in vivo; conditions: broilers, 50 ppm colistin sulfate in feed, 28-day experiment
Procedure: 800 1-day-aged fast-growing yellow feather broilers were divided into 4 groups, 4 parallels in each group and 50 broilers in each parallel. For each group, colistin sulfate and/or compound 3 were added into the feed. The chicken were kept in cages and given ad libitum access to feed and water during a 28-day experiment. Synergy of compound 3 and colistin sulfate on the chicken in the weight gain and feed efficiency was observed from the result (see Table 10).

[8] = tested on: various colistin sulfate-resistant Gram-negative bacteria; experiment: MIC by doubling dilution, summary over resistant species; conditions: bound that characterises the tested resistant strains
Procedure: as §1, §2

cherry valley ducks = experiment: Combined application of compound 3 and colistin sulfate in duck feed; format: in vivo; conditions: 40 ppm colistin sulfate in feed, 21-day experiment
Procedure: 800 1-day-aged cherry valley ducks were divided into 4 groups according to Table 10, 4 parallels in each group and 50 ducks in each parallel. For each group, colistin sulfate and/or compound 3 were added into the feed. The ducks were kept in cages and given ad libitum access to feed and water during a 21-day experiment. Synergy of compound 3 and colistin sulfate on the ducks in the weight gain and feed efficiency was observed from the result (see Table 11).

E. coli 4D-6 = experiment: MIC by doubling dilution, colistin sulfate-resistant E. coli 4D-6; conditions: E. coli 4D-6, colistin sulfate-resistant; substance alone; derivatives as hydrochlorides
Procedure: as §3

E. coli 3Y-9 = experiment: MIC by doubling dilution, colistin sulfate-susceptible E. coli 3Y-9; format: cell-based, Escherichia coli; conditions: E. coli 3Y-9, colistin sulfate-susceptible; substance alone; derivatives as hydrochlorides
weanling piglets [9] = experiment: Compound 3 in various dosages and colistin sulfate in the feed for weanling piglets; format: in vivo, Duroc×Landrace×Large crossbred lean weanling piglets; conditions: weanling piglets, only 20 ppm colistin sulfate in creep feed (control group), ten days
Procedure: 90 28-day-aged Duroc×Landrace×Large crossbred lean weanling piglets similar in weight were divided into 9 groups, 10 piglets in each group. For each group, colistin sulfate and/or various dosages of compound 3 were added into the antibiotic-free creep feed. The piglets were given ad libitum access to feed and water during the experiment. Weight gain, feed efficiency and diarrhea rate of each group within ten days were recorded.

E. coli 2G-7 = experiment: MIC by doubling dilution, colistin sulfate-resistant E. coli 2G-7; conditions: E. coli 2G-7, colistin sulfate-resistant; substance alone; derivatives as hydrochlorides
Procedure: as §3

P. aeruginosa E543 = experiment: MIC, resistance reversal by various concentrations of compound 3, P. aeruginosa E543; conditions: colistin sulfate with 0 ppm compound 3, or compound 3 (hydrochloride) in the absence of colistin sulfate
Procedure: as §1, §2

E. coli 3B-24 = experiment: MIC by doubling dilution, colistin sulfate-susceptible E. coli 3B-24; format: cell-based, Escherichia coli; conditions: E. coli 3B-24, colistin sulfate-susceptible; substance alone; derivatives as hydrochlorides

colistin sulfate [reference compound]
In vitro MIC of the substance alone (Shigella sp. 2D89): 32.00 ppm
In vitro minimum inhibitory concentration (MIC) of the substance alone (E. coli 2S-19): 2.0 ppm and 2.00 ppm
In vitro minimum inhibitory concentration (MIC) of the substance alone (E. coli 3H-4): 64 ppm and 64.0 ppm
Average daily weight gain (weanling piglets [1]): 215 g and 208 g and 217 g
Diarrhea rate (weanling piglets [1]): 31% and 29% and 33%
Feed conversion ratio (weanling piglets [1]): 1.654 and 1.598 and 1.623
In vitro minimum inhibitory concentration (MIC) of the substance alone (E. coli 5F-1 [2]): 128 ppm and 128.0 ppm
In vitro MIC of the substance alone (Klebsiella sp. 4125): 64.00 ppm
MIC value of colistin sulfate against the susceptible strains [3]: lower than 4.0 ppm
Average daily weight gain (weanling piglets [4]): 219 g
Diarrhea rate (weanling piglets [4]): 33%
Feed conversion ratio (weanling piglets [4]): 1.649
In vitro minimum inhibitory concentration (MIC) of the substance alone (E. coli 5W-7): 1.0 ppm and 1.00 ppm
MIC value of colistin sulfate against the resistant strains [5]: higher than 4.0 ppm
In vitro MIC of the substance alone (E. coli 5F-1 [6]): 128.00 ppm
Average daily weight gain [7]: 39.8 g
Feed conversion ratio [7]: 1.965
Survival rate [7]: 100%
MIC value of colistin sulfate against the resistant Gram-negative bacteria [8]: higher than 4.0 ppm
Average daily weight gain (cherry valley ducks): 50.1 g
Feed conversion ratio (cherry valley ducks): 1.945
Survival rate (cherry valley ducks): 100%
In vitro minimum inhibitory concentration (MIC) of the substance alone (E. coli 4D-6): 256 ppm and 256.0 ppm
In vitro minimum inhibitory concentration (MIC) of the substance alone (E. coli 3Y-9): 2.0 ppm and 2.00 ppm
Average daily weight gain (weanling piglets [9]): 211 g
Diarrhea rate (weanling piglets [9]): 33%
Feed conversion ratio (weanling piglets [9]): 1.672
In vitro minimum inhibitory concentration (MIC) of the substance alone (E. coli 2G-7): 64 ppm and 64.0 ppm
In vitro MIC of the substance alone (P. aeruginosa E543): 64.00 ppm
In vitro minimum inhibitory concentration (MIC) of the substance alone (E. coli 3B-24): 2.0 ppm and 2.00 ppm
